Activity calls are given as the source filed them. The rule behind the calls is not given here.
Experiments:
[1] = Oral bioavailability in rat at 10 mg/kg measured upto 24 hrs by LC-MS/MS analysis; assay type: ADME, organism-based; details: in vivo
[2] = system: Mus musculus; assay: Anti-colitis activity against DSS-induced BALB/c mouse model assessed as increase in body weight at 50 mg/kg, po, qd administered for 10 days; assay type: functional, organism-based; details: time 10.0 day
[3] = AUC in mouse at 10 mg/kg, sc measured upto 24 hrs by LC-MS/MS analysis; assay type: ADME, organism-based; parameters: route subcutaneous, dose 10 mg/kg, time <=24; details: in vivo
[4] = Intrinsic clearance in human liver microsomes; assay type: ADME, Microsome
[5] = Apparent permeability across apical to basolateral side in RRCK cells; details: dog, MDCK
[6] = Lipophilicity, log D of the compound in Octanol/buffer by shake-flask method
[7] = target: T1, Pantetheinase (Mus musculus, UniProt Q9Z0K8); assay: Inhibition of mouse vanin-1
T1 sequence (Q9Z0K8 whole entry): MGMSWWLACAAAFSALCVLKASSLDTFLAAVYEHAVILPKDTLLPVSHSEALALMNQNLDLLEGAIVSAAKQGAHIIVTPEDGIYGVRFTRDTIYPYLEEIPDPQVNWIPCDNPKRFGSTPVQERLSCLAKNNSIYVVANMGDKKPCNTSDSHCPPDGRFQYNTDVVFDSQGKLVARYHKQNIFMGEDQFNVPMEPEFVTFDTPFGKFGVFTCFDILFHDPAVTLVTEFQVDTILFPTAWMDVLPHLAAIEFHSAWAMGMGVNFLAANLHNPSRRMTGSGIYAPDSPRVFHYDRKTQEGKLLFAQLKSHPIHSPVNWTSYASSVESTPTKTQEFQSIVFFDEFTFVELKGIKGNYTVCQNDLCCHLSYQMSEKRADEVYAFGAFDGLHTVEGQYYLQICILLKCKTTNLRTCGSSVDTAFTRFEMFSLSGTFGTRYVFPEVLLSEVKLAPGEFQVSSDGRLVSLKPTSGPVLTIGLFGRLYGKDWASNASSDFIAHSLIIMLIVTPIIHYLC

[8] = target: T2, Biotinidase (Homo sapiens, UniProt P43251); assay: Inhibition of N-terminal FLAG/His6-tagged human biotinidase expressed in COS cells using biotinyl-7-amino-4-trifluoromethylcoumarin as substrate preincubated for 10 mins followed by substrate addition and measured after 90 mins; assay type: cell-based
T2 sequence (P43251 whole entry): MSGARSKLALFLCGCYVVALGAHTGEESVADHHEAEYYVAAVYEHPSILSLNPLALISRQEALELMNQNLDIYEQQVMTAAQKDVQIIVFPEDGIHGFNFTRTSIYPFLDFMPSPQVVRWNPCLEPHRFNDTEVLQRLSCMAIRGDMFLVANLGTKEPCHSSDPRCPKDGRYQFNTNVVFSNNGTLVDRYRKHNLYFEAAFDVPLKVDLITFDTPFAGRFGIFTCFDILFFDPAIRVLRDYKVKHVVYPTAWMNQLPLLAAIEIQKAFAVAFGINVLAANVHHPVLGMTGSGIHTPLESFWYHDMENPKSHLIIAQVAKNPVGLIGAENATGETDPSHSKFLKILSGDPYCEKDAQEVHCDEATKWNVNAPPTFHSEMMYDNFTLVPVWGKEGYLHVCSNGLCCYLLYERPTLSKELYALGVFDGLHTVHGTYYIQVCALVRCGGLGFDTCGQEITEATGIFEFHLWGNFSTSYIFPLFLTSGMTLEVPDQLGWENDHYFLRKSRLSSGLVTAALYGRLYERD

[9] = Clearance in rat at 1 mg/kg, iv measured upto 24 hrs by LC-MS/MS analysis; assay type: ADME, organism-based; details: in vivo
[10] = Volume of distribution in rat at 1 mg/kg, iv measured upto 24 hrs by LC-MS/MS analysis; assay type: ADME, organism-based; details: in vivo
[11] = Intrinsic clearance in human hepatocytes assessed per million cells; assay type: ADME, cell-based, Hepatocyte
[12] = Intrinsic clearance in rat hepatocytes assessed per million cells; assay type: ADME, cell-based, Hepatocyte
[13] = Intrinsic clearance in human hepatocytes assessed per million cells by relay assay method; assay type: ADME, cell-based, Hepatocyte
[14] = AUC in rat at 1 mg/kg, iv measured upto 24 hrs by LC-MS/MS analysis; assay type: ADME, organism-based; parameters: route intravenous, dose 1 mg/kg, time <=24; details: in vivo
[15] = AUC in rat at 10 mg/kg, po measured upto 24 hrs by LC-MS/MS analysis; assay type: ADME, organism-based; parameters: route oral, dose 10 mg/kg, time <=24; details: in vivo
[16] = Half life in rat at 1 mg/kg, iv measured upto 24 hrs by LC-MS/MS analysis; assay type: ADME, organism-based; details: in vivo
[17] = Renal clearance in rat at 1 mg/kg, iv assessed glomerular filtration rate; assay type: ADME, organism-based; details: in vivo
[18] = system: Mus musculus; assay: Anti-colitis activity against DSS-induced BALB/c mouse model assessed as reduction in disease activity index at 50 mg/kg, po, qd administered for 10 days; assay type: functional, organism-based; details: time 10.0 day
[19] = Unbound drug concentration in serum of DSS-induced BALB/c mouse colitis model at 50 mg/kg administered for 10 days; assay type: ADME, organism-based; details: in vivo, 240 h, time 10 day

Question: With `C[C@H](Nc1ncc(C(=O)N2CCC3(CCOCC3)C2)cn1)c1cnccn1` as the compound, how does the bioavailability [1] read?
Answer: 37%

Question: What about the Activity [2] of the same compound?
Answer: Active

Question: And the AUC at 24 h [3]?
Answer: 6590 ng·h/mL

Question: And the Intrinsic clearance [4]?
Answer: < 8 µL/min/mg

Question: What about the Papp A→B [5] of the same compound?
Answer: 14 ×10⁻⁶ cm/s

Question: And the logD [6]?
Answer: 0.4

Question: What about the IC50 [7] of the same compound?
Answer: 0.56 nM

Question: What about the IC50 [8] of the same compound?
Answer: 2800 nM

Question: What about the clearance [9] of the same compound?
Answer: 30 mL/min/kg

Question: And the Vd [10]?
Answer: 0.98 L/kg

Question: What about the CLint [11] of the same compound?
Answer: < 3 µL/min/1e6 cells

Question: What about the CLint [12] of the same compound?
Answer: 6 µL/min/1e6 cells

Question: What about the CLint [13] of the same compound?
Answer: 0.25 µL/min/1e6 cells

Question: What about the AUC at 24 h [14] of the same compound?
Answer: 616 ng·h/mL

Question: What about the AUC at 24 h [15] of the same compound?
Answer: 2250 ng·h/mL

Question: What about the half-life [16] of the same compound?
Answer: 48 min

Question: And the CL [17]?
Answer: 25%

Question: And the Activity [18]?
Answer: Active

Question: And the Ct [19]?
Answer: 2852 nM

From ChEMBL document CHEMBL5046251, “Discovery of a Series of Pyrimidine Carboxamides as Inhibitors of Vanin-1” (J Med Chem, 2022)
